Source: PubChem BioAssay (NCI)
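Following 48 hours of exposure in 96-well plates, responses at five concentrations were used to interpolate endpoints linearly. GI50 marks 50% less growth. TGI is the concentration that stops growth completely.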

Tests used:
Experiment in all cases: NCI anticancer screen, dose series, 48 h
SK-MEL-5 melanoma = test system: SK-MEL-5 melanoma
SF-295 CNS = test system: SF-295 CNS
HCC-2998 colon = test system: HCC-2998 colon
KM12 colon = test system: KM12 colon
A498 renal = test system: A498 renal
UACC-257 melanoma = test system: UACC-257 melanoma
NCI/ADR-RES ovarian = test system: NCI/ADR-RES ovarian
SNB-19 CNS = test system: SNB-19 CNS
UO-31 renal = test system: UO-31 renal
SF-539 CNS = test system: SF-539 CNS

Row | Compound | GI50 (SK-MEL-5 melanoma) [µM] | TGI (SK-MEL-5 melanoma) [µM] | GI50 (SF-295 CNS) [µM] | TGI (SF-295 CNS) [µM] | GI50 (HCC-2998 colon) [µM] | TGI (HCC-2998 colon) [µM] | GI50 (KM12 colon) [µM] | TGI (KM12 colon) [µM] | GI50 (A498 renal) [µM] | TGI (A498 renal) [µM] | GI50 (UACC-257 melanoma) [µM] | TGI (UACC-257 melanoma) [µM] | GI50 (NCI/ADR-RES ovarian) [µM] | TGI (NCI/ADR-RES ovarian) [µM] | GI50 (SNB-19 CNS) [µM] | TGI (SNB-19 CNS) [µM] | GI50 (UO-31 renal) [µM] | TGI (UO-31 renal) [µM] | GI50 (SF-539 CNS) [µM] | TGI (SF-539 CNS) [µM]
1 | Cc1ccc2c(C(C[N+](=O)[O-])c3ccco3)c(-c3ccccc3)[nH]c2c1 (stereo not given) | 29.7 | > 100 | 21.9 | > 100 | > 100 | > 100 | 21.5 | > 100 | 4.02 | 74.3 | > 100 | > 100 | 11.7 | > 100 | 59 | > 100 | 33.1 | > 100 | 30.6 | > 100
2 | CCCCCCCCCCCCNC(=O)[C@H]1CSC(c2ccsc2)N1 (stereo not given in full) | 1.36 | 5.22 | 0.926 | 1.68 | 0.955 | 2.15 | 0.868 | 1.64 | 9.62 | 17.1 | 0.946 | 1.7 | 1.23 | 2.56 | 0.952 | 1.83 | 0.826 | 1.51 | 0.902 | 1.7
3 | CCn1c(-c2nonc2N)nc2c(C#CC(C)(C)O)ncc(OC[C@@H]3CCCN3)c21 | 10.5 | > 25 | 3.07 | > 25 | 3.12 | > 25 | 2.61 | 18.5 | 0.136 | 1.97 | > 25 | > 25 | > 25 | > 25 | 4.28 | > 25 | 13.4 | > 25 | 1.52 | 15.8
4 | Cc1nc2cc(Nc3nc(Nc4ccc(F)cc4)nc(-c4ccc(Cl)cc4)n3)ccc2n1Cc1ccccc1 | 3.47 | > 100 | 4.81 | 58 | 6.36 | > 100 | 4.32 | > 100 | 4.54 | > 100 | 8.91 | > 100 | 5.51 | 33.8 | 9.77 | > 100 | 3.59 | > 100 | 11.3 | 28.7
5 | CN1CCN(CCCOc2ccc3ncnc(Nc4ccc(Oc5cccc(F)c5)c(Cl)c4)c3c2)CC1 | 1.62 | 3.01 | 1.8 | 3.25 | 1.64 | 3.06 | 1.81 | 3.39 | 1.25 | 2.74 | 1.96 | 4.06 | 1.83 | 4.79 | 1.64 | 3.16 | 1.11 | 2.3 | 1.54 | 2.93
6 | CCOC(=O)C(=Cc1c(-c2ccccc2)[nH]c2ccccc12)C(=O)OCC | 3.81 | 14.2 | 7.27 | 63.8 | 10.1 | 22.6 | 3.51 | 12 | 15.8 | 55.6 | 7.33 | 19.3 | 2.84 | 14.6 | 21.6 | > 64.3 | 3.92 | 17.1 | 14.4 | 30.9
7 | COc1ccc(-c2nn3ncccc3c2-c2ccnc(Nc3cccc(C(F)(F)F)c3)n2)cc1 | 5.27 | 14.5 | 7.6 | > 25 | 5.33 | 18.6 | 9.33 | > 25 | 4.41 | > 20.3 | 9.34 | > 25 | 6.16 | > 25 | 12.5 | > 25 | 4.83 | > 22.9 | 13.8 | > 25
8 | NCCn1c2c(c3ccccc3c1=O)C(=O)c1ccccc1-2 | 0.386 | 1.9 | 0.315 | 1.48 | 0.329 | 1.64 | 0.325 | 2.38 | 0.476 | 5.49 | 0.64 | 2.64 | 0.647 | 3.3 | 0.251 | 2.09 | 0.458 | 5.33 | 0.211 | 1.06
9 | COc1ccc(-c2conc2-c2ccccc2)cc1 | 0.441 | 4.47 | 0.317 | > 100 | 0.534 | 14.7 | 0.108 | 11 | 0.107 | 0.58 | 18.3 | > 100 | 0.142 | > 100 | 0.647 | > 100 | 0.64 | 40.9 | 0.272 | 3.87
10 | Cc1cc2c(-c3nc4ccccn4c3NC34CC5CC(CC(C5)C3)C4)c(O)c(O)cc2c(O)c1-c1c(C)cc2c(-c3nc4ccccn4c3NC34CC5CC(CC(C5)C3)C4)c(O)c(O)cc2c1O | 0.564 | 1.51 | 0.262 | 2.78 | 1.13 | > 25 | 0.11 | 11.7 | 0.817 | > 25 | 1 | > 25 | 1.05 | > 25 | 0.214 | 3.99 | 0.657 | 4.16 | 0.671 | 2.98
11 | COc1ccc2nc3cc(Cl)ccc3c(Nc3ccc(O)c(CN4CCCC4)c3)c2c1 | 1.82 | 3.24 | 1.6 | 3.53 | 1.67 | 3.16 | 3.13 | > 100 | 2.89 | 12.2 | 2.15 | 3.83 | 1.93 | 4.54 | 2.99 | 13.9 | 1.83 | 3.7 | 1.87 | 3.49
